Laboratory results reported in ChEMBL document CHEMBL4371005, “Overview of the Development of DprE1 Inhibitors for Combating the Menace of Tuberculosis” (J Med Chem, 2018).
Converted amounts (≈) assume the structure as drawn.

Columns and labels:
[1] = test system: Mycobacterium tuberculosis; experiment: Antimycobacterial activity against Mycobacterium tuberculosis H37Rv harboring deltarv3406 dprE1 L368P after overnight incubation by REMA method; format: functional
[2] = test system: Mycobacterium tuberculosis; experiment: Antimycobacterial activity against Mycobacterium tuberculosis H37Rv harboring rv3405c mutant TRC4 after overnight incubation by REMA method; format: functional

Row | Structure (SMILES) | MIC99 [1] [µM] | MIC99 [2] [µM]
1 | O=C(O)c1nc2ccc(C(F)(F)F)cc2nc1NCc1ccc(F)cc1 | 25 (≈ 9.13 µg/mL) | 25 (≈ 9.13 µg/mL)
2 | COc1ccc(CNc2nc3cc(C(F)(F)F)ccc3nc2C(=O)O)cc1 | 12.5 (≈ 4.72 µg/mL) | 6.3 (≈ 2.38 µg/mL)
3 | CCOC(=O)c1nc2ccc(C(F)(F)F)cc2nc1NCc1ccc(OC)cc1 | 12.5 to 25 | 6.3 (≈ 2.55 µg/mL)
4 | COc1ccc(CNc2nc3cc(C(F)(F)F)ccc3nc2C(=O)O)cc1F | 25 (≈ 9.88 µg/mL) | 12.5 (≈ 4.94 µg/mL)
5 | CCOc1ccc(CNc2nc3cc(C(F)(F)F)ccc3nc2C(=O)O)cc1 | 12.5 (≈ 4.89 µg/mL) | 6.3 (≈ 2.47 µg/mL)
6 | N#Cc1ccc(CNc2nc3cc(C(F)(F)F)ccc3nc2C(=O)O)cc1 | 100 (≈ 37.2 µg/mL) | 50 (≈ 18.6 µg/mL)
7 | O=C(O)c1nc2ccc(C(F)(F)F)cc2nc1NCc1ccc(C(F)(F)F)cc1 | 25 (≈ 10.4 µg/mL) | 12.5 (≈ 5.19 µg/mL)
8 | O=C(O)c1nc2ccc(C(F)(F)F)cc2nc1NCc1ccc(Cl)cc1 | 25 (≈ 9.54 µg/mL) | 12.5 (≈ 4.77 µg/mL)
